The text below walks through data of patent US20260315492A1, “5,6-FUSED BICYCLIC AMIDES AND COMPOSITIONS FOR USE AS 15-PROSTAGLANDIN DEHYDROGENASE MODULATORS” (AMGEN INC., priority 2023, published 2026).

The assay addresses T1, human recombinant 15-PGDH (Homo sapiens, UniProt P15428).
T1 sequence (P15428 1-266): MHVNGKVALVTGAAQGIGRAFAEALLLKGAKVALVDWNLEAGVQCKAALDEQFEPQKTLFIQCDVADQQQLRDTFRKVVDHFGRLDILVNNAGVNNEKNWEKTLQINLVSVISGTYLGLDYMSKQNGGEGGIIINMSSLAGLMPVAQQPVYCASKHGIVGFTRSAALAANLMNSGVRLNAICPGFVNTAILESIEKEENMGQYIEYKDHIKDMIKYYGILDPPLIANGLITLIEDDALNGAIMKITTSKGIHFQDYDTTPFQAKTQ
The experiment in a line: Inhibition of recombinant 15-PGDH enzymatic activity (NADH quantification after addition of PGE2 and NAD+). In kind it is biochemical. Particulars: recombinant 15-PGDH; 15 min pre-incubation, 60-minute reaction, room temperature, pH 7.5; PGE2 and NAD+; read-out: PGDH-Lumi IC50. In outline: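 Human recombinant 15-PGDH in 50 mM Tris pH 7.5, 0.01% Tween-20, 100 μM DTT, pre-incubated 15 min at room temperature with 22-point 2-fold compound dilutions. Reaction started with PGE2 and β-NAD+, run 60 min at room temperature, quenched. NADH signal read as activity; IC50 from concentration-response.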

Broadly, the IC50 is the point on the concentration scale where inhibition reaches its midpoint. `Cn1cc2cc(-c3ccc4sc(C(=O)N5CCCCC5)c(N)c4n3)cnc2n1` [Compound C45, (3-amino-5-(2-methyl-2H-pyrazolo[3,4-b]pyridin-5-yl)thieno[3,2-b]pyridin-2-yl)(1-piperidinyl)methanone]: the IC50 amounted to 0.679 nM. As for `Cn1cc2cc(-c3ccc4sc(C(=O)N5CCOCC5)c(N)c4n3)cnc2n1` [Compound C46, (3-amino-5-(2-methyl-2H-pyrazolo[3,4-b]pyridin-5-yl)thieno[3,2-b]pyridin-2-yl)(4-morpholinyl)methanone], the IC50 is 20.1 nM.

As to `Cn1cc2cc(-c3ccc4sc(C(=O)N5CCCC(F)(F)C5)c(N)c4n3)cnc2n1` [Compound C47, (3-amino-5-(2-methyl-2H-pyrazolo[3,4-b]pyridin-5-yl)thieno[3,2-b]pyridin-2-yl)(3,3-difluoro-1-piperidinyl)methanone], the half-inhibitory concentration (IC50) is 1.63 nM. With `Cn1cc2cc(-c3ccc4sc(C(=O)N5CCC(F)(F)CC5)c(N)c4n3)cnc2n1` [Compound C48, (3-amino-5-(2-methyl-2H-pyrazolo[3,4-b]pyridin-5-yl)thieno[3,2-b]pyridin-2-yl)(4,4-difluoro-1-piperidinyl)methanone] the figure was 3.53 nM. With `Cn1cc2cc(-c3nc(C4CC4)c4sc(C(=O)N5CCOCC5)cc4n3)cnc2n1` [Compound C49, (4-cyclopropyl-2-(2-methyl-2H-pyrazolo[3,4-b]pyridin-5-yl)thieno[3,2-d]pyrimidin-6-yl)(4-morpholinyl)methanone] the figure was 1.67 nM; with `O=C(c1nc2ccc(N3CCOCC3)nc2s1)N1CCOCC1` [Compound C50, 4-morpholinyl(5-(4-morpholinyl)[1,3]thiazolo[5,4-b]pyridin-2-yl)methanone], 14400 nM; with `Cn1cc2cc(-c3ccc4nc(C(=O)N5CCOCC5)sc4n3)cnc2n1` [Compound C51, (5-(2-methyl-2H-pyrazolo[3,4-b]pyridin-5-yl)[1,3]thiazolo[5,4-b]pyridin-2-yl)(4-morpholinyl)methanone], 17.9 nM. With `C[C@@H]1COCCN1C(=O)c1nc2ccc(-c3cnc4nn(C)cc4c3)nc2s1` [Compound C52R, ((3R)-3-methyl-4-morpholinyl)(5-(2-methyl-2H-pyrazolo[3,4-b]pyridin-5-yl)[1,3]thiazolo[5,4-b]pyridin-2-yl)methanone] the figure was 17 nM.

As to `C[C@H]1COCCN1C(=O)c1nc2ccc(-c3cnc4nn(C)cc4c3)nc2s1` [Compound C52S, ((3S)-3-methyl-4-morpholinyl)(5-(2-methyl-2H-pyrazolo[3,4-b]pyridin-5-yl)[1,3]thiazolo[5,4-b]pyridin-2-yl)methanone], the concentration for half-maximal inhibition (IC50) came to 25.7 nM.
